The source of these data is patent US20140066324A1, “GENE EXPRESSION SIGNATURE IN SKIN PREDICTS RESPONSE TO MYCOPHENOLATE MOFETIL” (NORTHWESTERN UNIVERSITY, priority 2011, published 2014).

For assay [1] the following is noted: SSc patients; cited from earlier work.
For assay [2], the system named is skin fibrosis. Kind of assay: Morphology of skin biopsy specimens, H&E staining of paraffin embedded sections. The assay is classed as in vivo, human. Here is the method:
Patients seen at the Northwestern Scleroderma Program who met American College of Rheumatology criteria for SSc with a mRSS≧16 and would be receiving mycophenolate mofetil for the indication of progressive skin tightening were assessed. All patients provided written informed consent in accordance with the Institutional Review Board Guidelines of Northwestern University. Patients underwent a standardized physical exam, including mRSS performed by one clinician at study entry (prior to treatment) and at 6 months and 12 months post MMF initiation. […] from clinically involved skin (forearm) and clinically uninvolved skin (back) from the non-dominant side of the body. Two biopsies (one from forearm and back) were placed in RNAlater® (Applied Biosystems, Ambion®, Carlsbad, Calif., U.S.A.) and used for DNA microarray analysis and the other biopsy was placed in 10% neutral buffered formalin and used for histological analyses.
To confirm the physical exam finding of softened skin in MMF-responders, the morphology of skin biopsy specimens was examined using routine H&E staining of paraffin embedded sections.

Turning to rituximab, in assay [1], the clinical response entry is “no clinical benefit”. For the compound `COc1c(C)c2c(c(O)c1C/C=C(\C)CCC(=O)OCCN1CCOCC1)C(=O)OC2` [MMF, mycophenolate mofetil], the “extent of skin fibrosis, pre- vs post-treatment biopsies” value in assay [2] (MMF responders) was “clear differences in the extent of fibrosis between pre- and post-treatment biopsies in responders”. The “skin fibrosis and dermal appendages” value in assay [2] (MMF-nonresponder) is “greater degree in skin fibrosis and a further loss of the normal dermal appendages”.
